The source of these data is US20220041578A1, “ISOINDOLINE COMPOUND, AND PREPARATION METHOD, PHARMACEUTICAL COMPOSITION, AND APPLICATION OF ISOINDOLINE COMPOUND” (Shanghai Institute of Meteria Medica, Chinese Academy of …, priority 2018, published 2022).

Molecules are shown by their SMILES. Like-named read-outs stand apart in the source and are kept apart here.

What all share (assay type): cell-based
The subject of assay [1] is Mino cells. In words: Effect of the compound on the proliferation of Mino cells (MTS). The following applies: Homo sapiens, 72 h, 3 days, read-out: Inhibitory activity (IC50). The procedure: Mino cells were cultured with 1640 plus […] and collected. The cell concentration was diluted according to the action time of 3 days, and 90 ul cell suspension was added to each well of the 96-well cell plate to make the cell count to be 8000. 10 ul of DMSO with a final concentration of 0.2% was added to the control cell wells. The compound was diluted 5-fold with the 10 mM stock solution, and 10 ul was also added to the compound cell wells (the final concentration of DMSO was 0.2%). The cells were placed in a 37° C., […] incubator and incubated for 3 days. After preparing the reaction solution according to the MTS kit (Promega, G5430), 20 μL was added to each well, incubated in a 37° C., 5% CO2 incubator for 3-4 h. Read the 490 nm absorbance value with a microtiter plate, and used the 690 nm absorbance value as the background value and OD490-OD690 as the final initial data. The formula for calculating the inhibition rate of the compound was: inhibition rate=(OD DMSO-ODcompound)/(ODDMSO-Oblank)×100%. The compound's proliferation inhibition IC50 was fitted by Graph Pad Prism 5.0. The experiment was repeated three times, and three parallel experiments were used to calculate the average and standard deviation each time.

For assay [2], the system named is MM.1S cells. The assay can be described thus: Effect of the compound on the proliferation of MM.1S cells (MTS). The following applies: Homo sapiens, MM1.S, 168 h, 7 days, read-out: Cell inhibitory activity (IC50). The procedure:
MM.1S cells were cultured with 1640 plus 10% fetal bovine serum and collected. The cell concentration was diluted according to the action time of 7 days, and 180 ul cell suspension was added to each well of the 96-well cell plate to make the cell count to be 20,000. 20 ul of DMSO with a final concentration of 0.2% was added to the control cell wells. The compound was diluted 5-fold with the 10 mM stock solution, and 20 ul was also added to the compound cell wells (the final concentration of DMSO is 0.2%). The cells were placed in a 37° C., 5% CO2 incubator and incubated for 7 days. After preparing the reaction solution according to the MTS kit (Promega, G5430), 20 μL was added to each well, incubated in a 37° C., 5% CO2 incubator for 3-4 h. Read the 490 nm absorbance value with a microtiter plate, and used the 690 nm absorbance value as the background value and OD490-OD690 as the final initial data. The formula for calculating the inhibition rate of the compound is: inhibition rate=(OD DMSO-ODcompound)/(ODDMSO-Oblank)×100%. The compound's proliferation inhibition IC50 was fitted by Graph Pad Prism 5.0. The experiment was repeated three times, and three parallel experiments were used to calculate the average and standard deviation each time.

Assay [3] relates to MV-4-11 cells. In words: Effect of the compound on proliferation of MV-4-11 cells (MTS). The following applies: Homo sapiens. The protocol: MV-4-11 cells were cultured with IMDM plus 10% fetal bovine serum and collected. The cell concentration was diluted according to the action time of 7 days, and 180 ul of cell suspension was added to each well of a 96-well cell plate to make the cell count to be 2000. 20 ul of DMSO with a final concentration of 0.2% was added to the control cell wells. The compound was diluted 5-fold with the 10 mM stock solution, and 20 ul was also added to the compound cell wells (the final concentration of DMSO was 0.2%). The cells were placed in a 37° C., 5% CO2 incubator and incubated for 7 days. After preparing the reaction solution according to the MTS kit (Promega, G5430), 20 μL was added to each well, incubated in a 37° C., 5% CO2 incubator for 3-4 h. Read the 490 nm absorbance value with a microtiter plate, and used the 690 nm absorbance value as the background value and OD490-OD690 as the final initial data. The formula for calculating the inhibition rate of the compound was: inhibition rate=(OD DMSO-ODcompound)/(ODDMSO-Oblank)×100%. The compound's proliferation inhibition IC50 was fitted by Graph Pad Prism 5.0. The experiment was repeated three times, and three parallel experiments were used to calculate the average and standard deviation each time. The cell viability test results were shown in Table 3: A means cell viability IC50<1 μM, B means cell viability 1 μM≤IC50≤20 μM, C means cell viability IC50>20 μM.

[4] abbreviates: MV4-11, 168 h, 7 days, MTS, read-out: Inhibitory activity (IC50).
Setting [5] is: MV4-11, read-out: cytostatic activity (IC50) on MV-4-11 cells.

Take `Cc1nc2cccc(N)c2c(=O)n1C1CCC(=O)NC1=O` (stereo not shown) [CC-122, reference compound]: the IC50 was 150 to 20000 nM in assay [1], below 150 nM in assay [2], above 20000 nM in assay [3] (setting [4]) and above 20000 nM in assay [3] (setting [5]).
With `O=C1CCC(N2Cc3c(OCc4ccc(CN5CCOCC5)cc4)cccc3C2=O)C(=O)N1` (stereo not shown) [CC-220, reference compound], the IC50 in assay [1] was below 150 nM; in assay [2], below 150 nM; in assay [3] (setting [4]) it was above 20000 nM; in assay [3] (setting [5]), above 20000 nM.
In the case of `O=C1CCC(N2Cc3c(OCc4cn(-c5cccc(Cl)c5Cl)nn4)cccc3C2=O)C(=O)N1` (stereo not shown) [Compound 18, 3-(4-((1-(2,3-dichlorophenyl)-1H-1,2,3-triazol-4-)methoxy)-1-oxoisoindolin-2-) piperidine-2,6-dione], the IC50 was below 150 nM in assay [1], below 150 nM in assay [2] and below 1000 nM in assay [3] (setting [4]).
As for `O=C1CCC(N2Cc3c(OCc4cn(-c5ccc(N6CCOCC6)cc5)nn4)cccc3C2=O)C(=O)N1` (stereo not shown) [Compound 19, 3-(4-((1-(4-morpholinophenyl)-1H-1,2,3-triazol-4-)methoxy)-1-oxoisoindolin-2-) piperidine-2,6-dione], the IC50 was 150 to 20000 nM in assay [1] and below 150 nM in assay [2].
Taken in the same sequence, the figures for `O=C1CCC(N2Cc3c(OCc4cn(-c5ccc6ncsc6c5)nn4)cccc3C2=O)C(=O)N1` (stereo not shown) [Compound 23, 3-(4-((1-(benzo [d]thiazol-6)-1H-1,2,3-triazol-4-(methoxy)-1-oxoisoindolin-2-)piperidine-2,6-dione] were below 150 nM and below 150 nM.
For `O=C1CCC(N2Cc3c(OCc4cn(-c5ccc(O[C@@H]6CCOC6)cc5)nn4)cccc3C2=O)C(=O)N1` (stereo partly drawn) [Compound 24, 3-(1-oxo-4-((1-(4-(((R)-tetrahydrofuran-3-)oxy)phenyl)-1H-1,2,3-triazol-4-)methoxy)isoindolin-2-)piperidine-2,6-dione], the IC50 in assay [1] and in assay [2] was below 150 nM each time.
For `O=C1CCC(N2Cc3c(OCc4cn(-c5ccc(O[C@H]6CCOC6)cc5)nn4)cccc3C2=O)C(=O)N1` (stereo partly drawn) [Compound 25, 3-(1-oxo-4-((1-(4-(((S)-tetrahydrofuran-3-)oxy)phenyl)-1H-1,2,3-triazol-4-)methoxy)isoindolin-2-)piperidine-2,6-dione], the IC50 in assay [1] and in assay [2] was below 150 nM each time.
Consider `O=C1CCC(N2Cc3c(OCc4cn(-c5ccc(OCC6CCOCC6)cc5)nn4)cccc3C2=O)C(=O)N1` (stereo not shown) [Compound 29, 3-(1-oxo-4-((1-(4-((2H-tetrahydropyran-4-)methoxy)phenyl)-1H-1,2,3-triazol-4-)methoxy)isoindolin-2-) piperidine-2,6-dione], for which the results for the IC50 in assay [1] and in assay [2] were 150 to 20000 nM and below 150 nM, respectively.
On to `O=C1CCC(N2Cc3c(OCc4ncc(-c5ccc(OC(F)(F)F)cc5)s4)cccc3C2=O)C(=O)N1` (stereo not shown) [Compound 39, 3-(1-oxo-4-((5-(4-trifluoromethoxyphenyl)thiazol-2-)methoxy)isoindolin-2-) piperidine-2,6-dione], for which the IC50 is 150 to 20000 nM in assay [1] and below 150 nM in assay [2].
`O=C1CCC(N2Cc3c(OCc4ncc(-c5ccc(OC(F)(F)F)cc5)o4)cccc3C2=O)C(=O)N1` (stereo not shown) [Compound 40, 3-(1-oxo-4-((5-(4-trifluoromethoxyphenyl)oxazol-2-)methoxy)isoindolin-2-) piperidine-2,6-dione]: the IC50 in assay [1] and in assay [2] was below 150 nM throughout.
Regarding `O=C1CCC(N2Cc3c(OCc4nnc(-c5ccc(OC(F)(F)F)cc5)s4)cccc3C2=O)C(=O)N1` (stereo not shown) [Compound 41, 3-(1-oxo-4-((5-(4-trifluoromethoxyphenyl)-1,3,4-thiadiazol-2-)methoxy)isoindolin-2-) piperidine-2,6-dione], the IC50 in assay [1] was 150 to 20000 nM; in assay [2], below 150 nM.
Consider `O=C1CCC(N2Cc3c(OCc4ccc(-c5ccc(OC(F)(F)F)cc5)o4)cccc3C2=O)C(=O)N1` (stereo not shown) [Compound 42, 3-(1-oxo-4-((5-(4-trifluoromethoxyphenyl)furan-2-)methoxy)isoindolin-2-) piperidine-2,6-dione], for which the IC50 in assay [1] and in assay [2] was below 150 nM each time.
As for `O=C1CCC(N2Cc3c(OCc4nnc(-c5ccc(OC(F)(F)F)cc5)o4)cccc3C2=O)C(=O)N1` (stereo not shown) [Compound 43, 3-(1-oxo-4-((5-(4-trifluoromethoxyphenyl)-1,3,4-oxadiazol-2-)methoxy)isoindolin-2-) piperidine-2,6-dione], the IC50 in assay [1] and in assay [2] was below 150 nM throughout.
On to `O=C1CCC(N2Cc3c(OCc4cnc(-c5ccc(OC(F)(F)F)cc5)s4)cccc3C2=O)C(=O)N1` (stereo not shown) [Compound 44, 3-(1-oxo-4-((2-(4-trifluoromethoxyphenyl)thiazol-5-)methoxy)isoindolin-2-) piperidine-2,6-dione], for which the IC50 in assay [1] and in assay [2] was below 150 nM each time.
In the case of `COC[C@H](Cc1ccccc1)n1cc(COc2cccc3c2CN(C2CCC(=O)NC2=O)C3=O)nn1` (stereo partly shown) [Compound 55], the IC50 in assay [2] is below 150 nM; in assay [3] (setting [4]), 1000 to 20000 nM.
On the same counts, the results for `O=C1CCC(N2Cc3c(OCc4cn(-c5ccc(Cl)cc5)nn4)cccc3C2=O)C(=O)N1` (stereo not shown) [Compound 74, 3-(4-((1-(4-chlorophenyl)-1H-1,2,3-triazol-4-yl)methoxy)-1-oxoisoindolin-2-yl) piperidine-2,6-dione] are below 150 nM and below 1000 nM.
Taken in the same sequence, the figures for `O=C1CCC(N2Cc3c(OCc4cn(-c5ccc(Cl)c(Cl)c5)nn4)cccc3C2=O)C(=O)N1` (stereo not shown) [Compound 75, 3-(4-((1-(3,4-dichlorophenyl)-1H-1,2,3-triazol-4-yl)methoxy)-1-isoindolin-2-yl) piperidine-2,6-dione] were below 150 nM and below 1000 nM.
Take `O=C1CCC(N2Cc3c(OCc4cn(C56CC7CC(CC(C7)C5)C6)nn4)cccc3C2=O)C(=O)N1` [Compound 76, 3-(4-((1-((3S, 5S, 7S)-adamantan-1-yl)-1H-1,2,3-triazol-4-yl)methoxy)-1-isoindolin-2-yl) piperidin-2,6-dione]: the IC50 in assay [2] is below 150 nM; in assay [3] (setting [4]), below 1000 nM.
Taken in the same sequence, the figures for `O=C1CCC(N2Cc3c(OCc4cn(-c5ccc(OC(F)(F)F)cc5)nn4)cc(F)cc3C2=O)C(=O)N1` (stereo not shown) [Compound 77, 3-(6-fluoro-1-oxo-4-((1-(4-(trifluoromethoxy)phenyl)-1H-1,2,3-triazol-4-yl)methoxy)isoindolin-2-yl) piperidine-2,6-dione] were below 150 nM and below 1000 nM.
On the same counts, the results for `O=C1CCC(N2Cc3c(OCc4ncc(-c5ccc(OC(F)(F)F)cc5)o4)cc(F)cc3C2=O)C(=O)N1` (stereo not shown) [Compound 81, 3-(6-fluoro-1-oxo-4-((5-(4-(trifluoromethoxy)phenyl)oxazol-2-yl)methoxy)isoindolin-2-yl) piperidine-2,6-dione] are below 150 nM and below 1000 nM.
Consider `O=C1CCC(N2Cc3c(NCc4cnc(-c5cccc(OC(F)(F)F)c5)o4)cccc3C2=O)C(=O)N1` (stereo not shown) [Compound 90], for which the 50% inhibitory concentration (IC50) in assay [1] and in assay [2] was below 150 nM each time.
In the case of `O=C1CCC(N2Cc3c(NCc4ncc(-c5ccc(OC(F)(F)F)cc5)o4)cccc3C2=O)C(=O)N1` (stereo not shown) [Compound 93], the IC50 in assay [1] was 150 to 20000 nM; in assay [2] it was below 150 nM.

The IC50 is the midpoint of a concentration-inhibition curve.
